In patent US20230220443A1, “CHARACTERIZATION OF S-ADENOSYL-L-METHIONINE-CONSUMING ENZYMES WITH 1-STEP EZ-MTASE: A UNIVERSAL COUPLED-ASSAY” (ALBERT EINSTEIN COLLEGE OF MEDICINE, priority 2017, published 2023):
“Also recorded” adds a separate entry of the source. Read-outs that look alike come from different tables or passages of the source.

How the values were obtained:
NcDIM-5 [1] = target: T1, NcDIM-5 (Neurospora crassa, UniProt Q8X225); assay type: biochemical
T1 construct: GST; made in house
T1 sequence (Q8X225 1-331): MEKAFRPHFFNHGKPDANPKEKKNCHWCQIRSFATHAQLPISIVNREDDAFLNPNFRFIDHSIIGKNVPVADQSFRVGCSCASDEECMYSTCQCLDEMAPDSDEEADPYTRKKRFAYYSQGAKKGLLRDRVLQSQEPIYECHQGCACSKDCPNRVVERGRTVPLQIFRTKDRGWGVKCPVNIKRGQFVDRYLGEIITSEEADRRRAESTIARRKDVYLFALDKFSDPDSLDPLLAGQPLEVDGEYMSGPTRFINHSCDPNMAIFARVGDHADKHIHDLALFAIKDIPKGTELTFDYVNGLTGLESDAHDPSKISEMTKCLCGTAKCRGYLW
Protocol: Kinetic behavior for peptide H3(1-53) against NcDIM-S(SAM sat.)—Experiments were conducted following matching CePRMT5 protocol above. Briefly, the 250-μL reaction mixtures from a same row contained 25 mM glycine buffer pH=9.50, 1 mM βME, 10% glycerol, 50 mM NaCl, 4 μM coupling deaminase TM0936, 7.6 nM NcDIM-5 and various peptide concentrations (0.51-12.68 μM; in the first well, peptide acceptor was omitted to account for background signal—natural decomposition of SAM). Reactions started upon addition of SAM (25.8 μM saturating final concentration) and absorbance was recorded. Initial rates were first corrected for background signal, then plotted against H3(1-53) concentrations. Fit to the Michaelis-Menten equation provided corresponding kinetic parameters.
Kinetic behavior for 8-aza-SAM against MTases (acceptor sat.)—Briefly, kinetic parameters were determined at 20° C. in a UV-Star 96-well flat bottom plate (Greiner Bio-One, #655801) by continuous monitoring of absorbance at 282 nm using a SpectraMax M5 instrument (Molecular Devices). As for SAM experiments, the measurements consisted of two experimental subsets: MTase reactions (both 8-aza-SAM and acceptor added) and MTase blanks (8-aza-SAM was added without acceptor to account for natural 8-aza-SAM decomposition). The 250-μL (60-μL) reaction mixtures from a same row contained 50 mM phosphate buffer pH=7.60 (7.80), 1 mM βME, 10% glycerol (5% glycerol, 100 μM MgCl2), 4 μM coupling deaminase TM0936, either 1.5 μM CePRMT5 or 402 nM TbPRMT7 (or 610 nM GsSDMT) and various 8-aza-SAM concentrations. […] Initial rates were first corrected for background signal, then plotted against 8-aza-SAM concentrations and fitted to the Michaelis-Menten equation to yield corresponding kinetic parameters.
where [MTase] and [8-aza-SAM] are the total concentration of methyltransferase and methyl donor, respectively; Km is the Michaelis constant, Kf is the substrate inhibition constant and kcat is the turnover for 8-aza-SAM substrate.

NcDIM-5 [2] = target: T1, NcDIM-5; conditions: literature values; cited from earlier work
[3] = pH=9.50, 25 μM SAM, 7.6 nM NcDIM-5

SMILES | acceptance of cofactor analog as substrate (NcDIM-5 [1]) | Km (NcDIM-5 [1]; [3]) | kcat (NcDIM-5 [1]; [3]) | Km (NcDIM-5 [2]) [µM] | kcat (NcDIM-5 [2]) [s⁻¹]
C[S+](CC[C@H](N)C(=O)O)C[C@H]1O[C@@H](n2nnc3c(N)ncnc32)[C@H](O)[C@@H]1O (stereo partly drawn) [8-aza-SAM, S-8-aza-adenosyl-L-methionine] | unable to accept; also recorded: unable to process | NOT A | NOT A | – | –
C[S+](CC[C@H](N)C(=O)O)C[C@H]1O[C@@H](n2cnc3c(N)ncnc32)[C@H](O)[C@@H]1O (stereo partly drawn) [SAM, S-adenosyl-L-methionine] | – | – | – | 0.68 ± 0.2 | 0.000861
